This experiment deals with Aedes aegypti mosquitoes. In kind it is in vivo. To be noted: for Synergism of the insecticide by Cha Plu (SR or words): Cha Plu at 4 μg/female; for LD50: Table 1, topical 0.2 μL, mortality at 24 hr, Cha Plu 4 μg/female where combined; for Synergism of NP by Cha Plu constituent: Table 2, 2 ug/female. From the text:
Aedes aegypti mosquitoes of the insecticide susceptible Orlando strain and the pyrethroid-resistant Puerto Rico strain were reared using standard protocols and provided by the United States Department of Agriculture—Center of Medical, Agricultural, and Veterinary Entomology (Gainesville, FL). Mosquitoes were aspirated from colony cages raised from pupae and anesthetized on ice. […] Ten mosquitoes were used per concentration and at least three different biological cohorts were used in the analysis. Knockdown (defined as inability to fly or maintain posture) was recorded at 1 hr or other time points post application (depending on the experiment), whereas mortality (defined as no movement—ataxia) was recorded at 24 hr. […] SAS 9.4 was used to calculate the LD50 values using a PROC PROBIT model with Abbott's correction to account for any control mortality.

For `CCOCn1c(-c2ccc(Cl)cc2)c(C#N)c(Br)c1C(F)(F)F` [Chlorfenapyr], the “Synergism of the insecticide by Cha Plu (SR or words)” value (from here on “Synergism of the insecticide”) is recorded as “antagonism” and the LD50 worked out at 9.9 ng/mg.
In the case of `C[C@@H]1O[C@@H](OC[C@H]2O[C@@H](Oc3c(-c4ccc(O)c(O)c4)oc4cc(O)cc(O)c4c3=O)[C@H](O)[C@@H](O)[C@@H]2O)[C@H](O)[C@H](O)[C@H]1O` [rutin], the “Synergism of NP by Cha Plu constituent” value is “more than 3 fold”.
As for `N#Cc1nn(-c2c(Cl)cc(C(F)(F)F)cc2Cl)c(N)c1[S+]([O-])C(F)(F)F` (stereo not drawn) [Fipronil], the “Synergism of the insecticide” value was 1.02 and the LD50 worked out at 0.1 ng/mg.
Regarding `CCCCOCCOCCOCc1cc2c(cc1CCC)OCO2` [PBO], the “Synergism of NP” value (PBO applied at 2 μg/female) is on record as 3.8 fold.
Consider `CNC(=N[N+](=O)[O-])NCc1cnc(Cl)s1` [Clothianidin, 1-(2-Chloro-1,3-thiazol-5-ylmethyl)-3-methyl-2-nitroguanidine], for which the “Synergism of the insecticide” value is listed as “strong synergist” and the LD50 is 4.5 ng/mg.
As to `O=c1cc(-c2ccc(O)cc2)oc2c([C@@H]3O[C@H](CO)[C@@H](O)[C@H](O)[C@H]3O)c(O)cc(O)c12` [Vitexin], the “Synergism of NP by Cha Plu constituent” value was “inactive”.
